Antibacterial efficacy and cell migration data for three molecules are collected here from patent US20260053836A1, “CHRONIC WOUND HEALING COMPOSITION AND APPLICATION THEREOF” (priority 2019, published 2026).

Structures are written as SMILES.

Assay [1] relates to Staphylococcus aureus. To be noted: Guillermo et al., 1999; cited from earlier work.
In assay [2] the test system is HaCaT cells. The experiment in a line: Cell migration assay of HaCaT cells in high glucose culture. The class given is cell-based, human. The settings on record: high glucose (25 mM), 48 hours, control group taken as 1. How it is done: Human dermal fibroblasts (HDF cells) or human keratinocytes (HuCaT cells) were cultured in a humid incubator at 37° C. in an environment of 5% carbon dioxide and […] and placed in Dulbecco's modified Eagle's medium (DMEM) supplemented with glucose, 10% fetal bovine serum, 100 IU/mL penicillin, 100 μg/mL streptomycin, 2 mM sodium pyruvate and 1% nonessential amino acids (NEAA). The medium was changed every two days. For subculture, cells were harvested and re-cultured at a 1:10 dilution after exposure to 0.1% Trypsin-EDTA mixture. The cells used in the study ranged from 12 to 40 passages. 24 hours before drug treatment, cells were seeded and left for 24 hours. The control group was maintained in the medium and […]. Under this culture condition, cell growth and differentiation are not affected.
HaCaT cells were cultured at 1×10^5 with addition of 25 mM glucose in a 24-well culture dish for 48 hours, and the following drugs were added to observe the cell migration state: • Con: the control group; • BO 18.8 μM+A 16.0 μM; • BSG 14.2 μM+A 16.0 μM; • BO 18.8 μM+BSG 14.2 μM; • All: A 16.0 μM+BO 18.8 μM+BSG 14.2 μM.

In the case of `C[C@@H]1O[C@@H](O[C@@H]2[C@@H](O)[C@H](OCCc3ccc(O)c(O)c3)O[C@H](CO)[C@H]2OC(=O)/C=C/c2ccc(O)c(O)c2)[C@H](O)[C@H](O)[C@H]1O` [Acteosides, Acteoside], the antibacterial efficacy entry in assay [1] is reported as “good antibacterial efficacy”.

Turning to `CC1(C)C2CCC1(C)C(O)C2` (stereo not drawn) [BO, Borneal], in assay [2], the cell migration result was “no promoting effect”.

With `O=C(O)c1cc(O)c2c(c1)[O][Bi]([OH])[O]2` [BSG, Bismuth subgallate], in assay [2], the cell migration entry is listed as “no promoting effect”.
